Active and inactive are the calls of the source. The rule behind the calls is not given here.
Target: T1, Estrogen receptor (Homo sapiens) (UniProt P03372)
T1 sequence (whole entry): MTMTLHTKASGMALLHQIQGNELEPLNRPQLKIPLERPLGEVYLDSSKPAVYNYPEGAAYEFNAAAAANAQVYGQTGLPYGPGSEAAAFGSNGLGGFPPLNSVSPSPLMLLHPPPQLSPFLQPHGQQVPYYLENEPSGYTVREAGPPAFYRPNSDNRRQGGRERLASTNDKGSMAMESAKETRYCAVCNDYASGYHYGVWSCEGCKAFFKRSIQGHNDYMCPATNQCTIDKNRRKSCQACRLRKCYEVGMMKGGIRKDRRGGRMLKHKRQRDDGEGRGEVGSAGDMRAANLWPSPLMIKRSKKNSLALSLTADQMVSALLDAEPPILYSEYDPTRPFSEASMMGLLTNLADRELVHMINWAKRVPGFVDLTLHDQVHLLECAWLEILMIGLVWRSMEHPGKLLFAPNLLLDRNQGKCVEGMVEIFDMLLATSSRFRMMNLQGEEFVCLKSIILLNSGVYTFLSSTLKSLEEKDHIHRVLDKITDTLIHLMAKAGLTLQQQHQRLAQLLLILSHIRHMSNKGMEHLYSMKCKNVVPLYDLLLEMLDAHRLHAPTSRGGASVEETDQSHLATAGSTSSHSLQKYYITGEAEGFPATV
Experiment: Induction of estrogen receptor-mediated compound internalization in human MCF-7 cells at 10 umol by fluorescence microscopy
Type: cell-based
Details: MCF7

Row | SMILES | Activity
1 | C=CC1=C(C)c2cc3[nH]c(c4c5nc(cc6[nH]c(cc1n2)c(C)c6CC)C(C)=C5C(=O)C4)[C@@H](CCC(=O)O)[C@@H]3C | inactive
2 | C=CC1=C(C)c2cc3[nH]c(c4c5nc(cc6[nH]c(cc1n2)c(C)c6CC)C(C)=C5C(=O)C4)[C@@H](CCC(=O)OCCC#C[C@]1(O)CC[C@H]2[C@@H]4CCc5cc(O)ccc5[C@H]4CC[C@@]21C)[C@@H]3C | Active

From ChEMBL document CHEMBL1806405, “Internalization of a C17α-alkynylestradiol-porphyrin conjugate into estrogen receptor positive MCF-7 breast cancer cells” (Bioorg Med Chem Lett, 2011)
